Results on three compounds are retold here after patent US9809550B2, “Quinolyl hydrazones for the treatment of tuberculosis and related diseases” (TECNIMEDE SOCIEDADE TECNICO-MEDICINAL S.A., priority 2012, dated 2017).

This experiment concerns Mycobacterium smegmatis. Nature of the experiment: In vitro Mycobacterium smegmatis growth inhibition assay (suspension turbidity). The format is cell-based. The note with it: for Inhibitory activity against Mycobacterium smegmatis growth, in words, compared with RMP: versus active control RMP; for IC50: Mycolicibacterium smegmatis, four parameter curve fit of the 96 hours growth data, read-out: IC50 (concentration to inhibit 50% of the Mycobacterium smegmatis growth).

In the case of “3,5-dibromo-2-hydroxybenzaldehyde (2-pyridinyl)hydrazine [Compound no. 42]”, the “Inhibitory activity against Mycobacterium smegmatis growth, in words, compared with RMP” value (shortened to “Inhibitory activity … compared with RMP”) is given as “superior inhibitory activity”.

As for `Oc1ccc(Br)cc1C=NNc1ccc2ccccc2n1` [Compound no. 76, 5-bromo-2-hydroxybenzaldehyde 2-quinolinylhydrazone], the IC50 turned out to be 16.2 µM and the “Inhibitory activity … compared with RMP” value is “better IC50 values than RMP”. For the same compound, the “% of Celular Growth at 96 hours” value (concentration 1.23 uM) was 118.35%. Where the note is “concentration 3.70 uM”, the “% of Celular Growth at 96 hours” value worked out at 113.44%. Further, for the setting “concentration 11.11 uM”, the “% of Celular Growth at 96 hours” value was found to be 121.72%. For the same compound, the “% of Celular Growth at 96 hours” value (concentration 33.33 uM) is listed as 43.92%. Further, the “% of Celular Growth at 96 hours” value (concentration 100.00 uM) is listed as 51.50%.

For the compound `Cc1cc(NN=Cc2ccccc2O)nc2ccccc12` [Compound no. 77, 2-hydroxybenzaldehyde-(4-methyl-2-quinolinyl)hydrazone], the IC50 was 6.59 µM and the “Inhibitory activity … compared with RMP” value was “better IC50 values than RMP”. Where the note is “concentration 1.23 uM”, the “% of Celular Growth at 96 hours” value is reported as 77.17%. For the setting “concentration 3.70 uM”, the “% of Celular Growth at 96 hours” value came to 57.42%. Further, the “% of Celular Growth at 96 hours” value (concentration 11.11 uM) amounted to 29.14%. Further, the “% of Celular Growth at 96 hours” value (concentration 33.33 uM) was 22.41%. In addition, the “% of Celular Growth at 96 hours” value (concentration 100.00 uM) amounted to 34.09%.
